Inconclusive results are not listed. The source made the active and inactive calls.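 The calls were made as follows: active = compounds lowering the luciferase signal with a fitted half-maximal dose at most twice their top valid dose (cut at about 30 µM in these data); inconclusive = flat fits with moderate signal loss, or poor fits; inactive = the rest.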
What follows are compounds tested on Clone20 osteoblast Shn3 3'UTR firefly luciferase, 24 h (assay: Schnurri-3 3'UTR-luciferase signal suppressors – cell-based, Clone20 osteoblasts, luminescence, dry powder, set 2, dose response (AID 743417)).
With CCN(CC)S(=O)(=O)c1ccc(-c2ccc(S(=O)(=O)N(CC)CC)cc2)cc1 the AC50 was 3810 nM.
Compound CC(C)=CCc1cc([C@@H]2COc3c(ccc4c3C=CC(C)(C)O4)C2)c(O)cc1O has an AC50 of 7540 nM.
For COc1ccc(CNCCC(c2ccc(OC(C)C)cc2)c2ccccc2OC)cc1OC (centres undefined), the AC50 was 4350 nM.
With CCOC(=O)c1c(-c2ccccc2)oc2cc(CN(C)C)c(O)c(CN(C)C)c12 the AC50 was 7810 nM.
Work on Cc1cccc(C(=O)Nc2ccc(C(=O)/C=C/c3cccnc3)cc2)c1 yielded an AC50 of 6230 nM.
COC(=O)C12OCC34C(CC5C(C)=C(O)C(=O)CC5(C)C3C(O)C1O)OC(=O)C(OC(=O)C=C(C)C)C24 (centres undefined) showed an AC50 of less than 260 nM.
COc1ccc(-c2nc(-c3ccccn3)no2)cc1 showed an AC50 of 1920 nM.
In the case of CCOC(=O)/C=C/C(=O)OCC(=O)NC(c1ccccc1)c1ccccc1, the AC50 is reported as 5140 nM.
Cc1ccc(CC(=O)Nc2ccncc2)cc1 was tested, and the AC50 was 2390 nM.
COc1cc2ncnc(N[C@H](C)c3ccccc3)c2cc1OC was tested, and the AC50 was 8720 nM.
CC[C@@H](C)[C@H](NC(=O)OC(C)(C)C)c1nnc(S(=O)(=O)Cc2cc(C)ccc2C)o1 gave an AC50 of 5770 nM.
O=S(=O)(c1ccccc1)N1CCN(c2cc(-c3ccccc3)nc3ncnn23)CC1 showed an AC50 of 1120 nM.
In the case of Cc1ccc(C(=O)N2c3ccccc3N(Cc3ccccc3)C(=O)C2(C)C)cc1, the AC50 is reported as 6920 nM.
Compound COc1ccc(-n2ncc(Cl)c(Cl)c2=O)cc1 has an AC50 of 3360 nM.
CC(=O)Oc1ccc(OC(C)=O)c(SCCCCCCl)c1 showed an AC50 of 2580 nM.
CC(C)C1C(=O)N(Cc2cn(CCC3OCCO3)nn2)CCS(=O)(=O)N1Cc1ccc(-c2ccc(Cl)cc2)cc1 (centres undefined) showed an AC50 of 2130 nM.
Work on C=C1CC2(CC(c3ccccc3)OC(c3ccccc3)C2)OC1=O (centres undefined) yielded an AC50 of 2490 nM.
CC(C)(C)C(=O)Cn1ncc(Br)c(Br)c1=O was tested, and the AC50 was 9510 nM.
COc1ccc(CCNc2ncnc3sc(C)cc23)cc1OC was tested, and the AC50 was less than 260 nM.
For COc1ccccc1C(=O)Nc1nc(-c2ccc(S(=O)(=O)N3CCOCC3)cc2)cs1, the AC50 was 1210 nM.
Work on C[C@H]1CN=C(N(C)C)N1CC1CCC(C(C)(C)C)CC1 (some centres undefined) yielded an AC50 of 2270 nM.
Compound CCCCC(=O)NC(c1ccc(C(C)C)cc1)c1ccc2cccnc2c1O (centres undefined) has an AC50 of 570 nM.
With O=C(Nc1ccncc1)c1ccc(Cl)c(S(=O)(=O)N2CCc3ccccc32)c1 the AC50 was 3190 nM.
Cc1ccc(-c2cn3cc(C)ccc3n2)cc1 gave an AC50 of 1320 nM.
Work on CCOC(=O)c1cn(CC(=O)Nc2cccc(Cl)c2C)nn1 yielded an AC50 of 4650 nM.
Work on Cc1ccc(S(=O)(=O)CCC(=O)OCC(=O)Nc2cc(S(=O)(=O)N3CCOCC3)ccc2C)cc1 yielded an AC50 of 17800 nM.
Compound NS(=O)(=O)c1ccc(CNC(=S)NC(=O)c2ccco2)cc1 has an AC50 of 22900 nM.
Compound CCCCC(=O)NC(c1ccc(N(C)C)cc1)c1ccc2cccnc2c1O (centres undefined) has an AC50 of 980 nM.
Work on CC(C)Cn1c(N)c(C(=O)CSc2ccc3c(c2)OCCO3)c(=O)n(C)c1=O yielded an AC50 of 674 nM.
With c1ccc(CNc2ncnc3scc(-c4cccs4)c23)nc1 the AC50 was 3590 nM.
With O=C1S/C(=C\c2ccc(N3CCOCC3)o2)C(=O)N1Cc1c(F)cccc1Cl the AC50 was 6720 nM.
For COc1ccc(-c2ccc(Nc3ccc(S(=O)(=O)N4CCCC4)cc3)nn2)cc1OC, the AC50 was 20100 nM.
For COC(=O)C1=C(c2ccc3ccccc3c2)C[C@@H]2CC[C@H]1N2C(=O)NCC1CC1, the AC50 was 6860 nM.
CCOc1cc(/C=C2\CN(CC)C/C(=C\c3ccc(O)c(OCC)c3)C2=O)ccc1O showed an AC50 of 2120 nM.
Compound Cc1ccc(NC(=O)c2oc3ccccc3c2COC(C)C)cc1S(=O)(=O)N1CCOCC1 has an AC50 of 14400 nM.
Work on CCN(CC)c1ccc(NC(=O)CN2C(=O)CSc3ncccc32)c(C)c1 yielded an AC50 of 1780 nM.
Work on COc1ccc(OCC(O)CNCCOc2ccccc2OC)c(C(C)(C)C)c1 (centres undefined) yielded an AC50 of 11600 nM.
For CN1/C(=C\C=C2/SC(=S)NC2=O)C(C)(C)c2ccccc21, the AC50 was 2600 nM.
With CCN1C(=O)C(=Cc2cccc(OC)c2Oc2ccc([N+](=O)[O-])cc2[N+](=O)[O-])SC1=S the AC50 was 1890 nM.
CC(C)C[C@@H](CO)N(Cc1ccccc1)S(=O)(=O)N(Cc1ccccc1)[C@@H](CO)CC(C)C showed an AC50 of 11400 nM.
For CCC(=O)N1CCN(c2ccc(NC(=O)c3ccc([N+](=O)[O-])o3)cc2Cl)CC1, the AC50 was 850 nM.
Compound CC(Nc1ncnc2sccc12)c1ccccc1 (centres undefined) has an AC50 of 505 nM.
With CC1CC(C)(C)CC2(C1)NC(=O)N(CC(=O)N1CCN(Cc3ccc(C#N)cc3)CC1)C2=O (centres undefined) the AC50 was 1470 nM.
For N#Cc1cc(-c2ccccc2)[nH]c1-c1nccc2ccccc12, the AC50 was 3420 nM.
CCOc1ccc(-n2c(-c3ccccc3)c[n+]3c2CCC3)cc1 gave an AC50 of 526 nM.
With O=C(Cc1ccc(Cl)cc1)Nc1ccc(N2CCN(C(=O)c3ccco3)CC2)cc1 the AC50 was > 70000 nM (inactive).
Cc1cccc(N2C(=O)NC(=O)/C(=C\C=C\c3ccco3)C2=O)c1 was tested, and the AC50 was 3060 nM.
Work on COC(=O)C12OCC34C(CC5C(C)=C(O)C(=O)CC5(C)C3C(O)C1O)OC(=O)C(OC(=O)/C=C(\C)C(C)C)C24 (centres undefined) yielded an AC50 of less than 260 nM.
COc1ccccc1C(CCNCc1ccc(N(C)C)cc1)c1ccc(OC(C)C)cc1 (centres undefined) gave an AC50 of 6480 nM.
Work on C=C1C(=O)[C@@]23[C@H](O)C[C@@H]4C(C)(C)CC[C@H](O)[C@@]4(C)[C@@H]2CC[C@@H]1[C@H]3O yielded an AC50 of 1290 nM.
Work on CCC(OC(=O)c1ccc(S(C)(=O)=O)c([N+](=O)[O-])c1)C(=O)NC1C2CC3CC(C2)CC1C3 (centres undefined) yielded an AC50 of 1660 nM.
Work on CCCCN1CC(COCc2ccccc2)Oc2cccc(Oc3ccc(C)cc3)c2S1(=O)=O (centres undefined) yielded an AC50 of 10700 nM.
NC(=O)CC(NC(=O)c1ccccc1)c1ccc(N2CCC(Cc3ccccc3)CC2)c([N+](=O)[O-])c1 (centres undefined) was tested, and the AC50 was 2610 nM.
In the case of CCC(CC)CN1C(N(C)C)=NC[C@@H]1CC(C)C, the AC50 is reported as 717 nM.
O=C(Nc1ccc2nc3n(c(=O)c2c1)CCCCC3)c1c(F)ccc([N+](=O)[O-])c1F gave an AC50 of 2300 nM.
Work on Cc1ccc(NC(=O)CN(C)CC(=O)Nc2cccc(F)c2)cc1[N+](=O)[O-] yielded an AC50 of 570 nM.
C=C1C(=O)[C@]23C[C@H]1CC[C@H]2[C@]1(C)[C@@H](OC(C)=O)CC[C@@](C)(C(=O)OC)[C@H]1C[C@@H]3OC(C)=O showed an AC50 of 5990 nM.
Cc1cc(C)c(S(=O)(=O)N2Cc3ccccc3-n3nncc3C2)c(C)c1 was tested, and the AC50 was 4360 nM.
Compound CC(NNC(=S)N1CCN(c2ccccn2)CC1)c1nccc2ccccc12 (centres undefined) has an AC50 of less than 260 nM.
Compound Cc1ccc(NC(=O)C2CCN(S(=O)(=O)c3ccc4c(c3)NC(=O)C(C)S4)CC2)cc1C (centres undefined) has an AC50 of 2610 nM.
Compound C=C1C(=O)C23C(O)C1CCC2C12COC3(O)C(O)C1C(C)(C)CCC2O (centres undefined) has an AC50 of 3300 nM.
Cn1c(=O)c2[nH]c(CCCCCCCCc3nc4ccccc4[nH]3)nc2n(C)c1=O showed an AC50 of 3980 nM.
For Cc1cc(C(=O)NNS(=O)(=O)c2cc(C(=O)O)ccc2Cl)c(C)n1-c1ccccc1, the AC50 was 25700 nM.
Work on COC(=O)c1c(-c2cccc3ccccc23)csc1NC(=O)Cc1ccc(OC)c(OC)c1 yielded an AC50 of 5430 nM.
Compound Cc1ccc(NC(=O)CSc2ccc3c(c2)OCCO3)c(O)c1 has an AC50 of 343 nM.
In the case of Cc1cc(NC(c2ccc(Cl)cc2)c2ccc3cccnc3c2O)no1 (centres undefined), the AC50 is reported as 1050 nM.
Compound COc1ccc(C(NC(=O)C(C)C)c2ccc3cccnc3c2O)cc1 (centres undefined) has an AC50 of 1350 nM.
Work on O=C(Nc1ccc(-c2nc3ncccc3o2)cc1)c1ccc([N+](=O)[O-])o1 yielded an AC50 of 1340 nM.
Compound O=C1CCc2cccc(O)c2N1 has an AC50 of 12200 nM.
Compound Oc1cc(Nc2ccccc2)cc2cccnc12 has an AC50 of 1790 nM.
COc1cccc(CNc2nc(NCC3CC3)nc3ccsc23)c1OC was tested, and the AC50 was 4480 nM.
For Cc1cccc(CS(=O)(=O)c2ncc(Cl)c(C(=O)NCc3ccc4c(c3)OCO4)n2)c1, the AC50 was 938 nM.
O=C(CSc1c2c(nc3ccc(Cl)cc13)CCCC2)NCc1ccco1 showed an AC50 of 5710 nM.
For c1ccc(-c2ccc(-c3nc(-c4ccccn4)no3)cc2)cc1, the AC50 was 3750 nM.
For Cc1ccc(NC(=O)c2cc3ccccc3oc2=O)cc1S(=O)(=O)N(C)C, the AC50 was 1290 nM.
Work on COc1ccc(NC(=O)c2nc(S(=O)(=O)Cc3cccc(C)c3)ncc2Cl)c(OC)c1 yielded an AC50 of 299 nM.
For O=C(c1ccc(F)cc1)C(CN1CCOCC1)c1ccccc1 (centres undefined), the AC50 was 17600 nM.
In the case of O=C(NCCc1ccccc1)c1ccc2c(c1)OCCCO2, the AC50 is reported as 1050 nM.
Work on O=[N+]([O-])c1ccc(S(=O)(=O)c2ccccc2)nc1 yielded an AC50 of 1740 nM.
Compound CC(C)=CCC/C(C)=C/CNC(=O)C[C@H]1C[C@H](C(=O)N2CCOCC2)[C@@]2(C)c3[nH]c4cc(CCC(=O)N(C)C)ccc4c3CCN2C1=O has an AC50 of 1110 nM.
With CC1Cc2ccccc2N1Cc1cccc(S(=O)(=O)N(C)C)c1 (centres undefined) the AC50 was 33000 nM.
For Cc1ccccc1NC(=O)CSc1nc2ccccc2c(=O)n1C, the AC50 was 7640 nM.
COc1cccc(-c2nc(NC3CCCC3)c3ccccc3n2)c1O was tested, and the AC50 was 25000 nM.
For O=C(c1ccccc1)C(CCC(CN1CCOCC1)C(=O)c1ccccc1)CN1CCOCC1 (centres undefined), the AC50 was 12800 nM.
COC(=O)c1ccc(CCc2cc(O)ccc2O)cc1 was tested, and the AC50 was 3140 nM.
Work on CC1Sc2ccc(S(=O)(=O)N3CCC(C(=O)Nc4ccc(Cl)cc4)CC3)cc2NC1=O (centres undefined) yielded an AC50 of 2420 nM.
Work on CCc1cc2c(N3CCN(c4ccccc4)CC3)ncnc2s1 yielded an AC50 of 6180 nM.
Compound COc1cc(NC(=O)COc2cc(O)c3c(c2)OC(C)(C)CC3=O)cc(OC)c1OC has an AC50 of 354 nM.
CN(C)c1ccc(/C=C/c2ccc3ccccc3n2)cc1 gave an AC50 of 1330 nM.
COC(=O)C1=C(c2ccc(OCc3ccccc3)cc2)C[C@@H]2CC[C@H]1N2C(=O)NCCCCc1ccccc1 was tested, and the AC50 was 2800 nM.
O=C(Nc1nc(-c2ccccn2)cs1)C1COc2ccccc2O1 (centres undefined) showed an AC50 of 5810 nM.
Cn1nnnc1Sc1ncnc2scc(-c3ccc(Br)cc3)c12 gave an AC50 of 334 nM.
Compound CCN(CC)C(=O)[C@H]1C[C@H](CC(=O)NC/C=C(\C)CCC=C(C)C)C(=O)N2CCc3c([nH]c4cc(CCC(=O)N(C)C)ccc34)[C@]12C has an AC50 of 1370 nM.
Work on COc1ccccc1NS(=O)(=O)c1cccc(C(=O)NC2CCN(Cc3ccccc3)CC2)c1 yielded an AC50 of 1950 nM.
COc1ccc(C(=O)C(C)OC(=O)c2cccc(S(=O)(=O)Nc3cc(Cl)c(OC)cc3OC)c2)cc1 (centres undefined) was tested, and the AC50 was 5540 nM.
With Cc1c(C(C)C)c(=O)n(-c2ccc(S(=O)(=O)NC3CCCCC3)cc2)n1C the AC50 was 1060 nM.
Cc1cc(C)n2nc(SCc3cccc(S(=O)(=O)N(C)C)c3)nc2n1 showed an AC50 of 14000 nM.
With C[C@H]1COC(=O)[C@H](NC(=O)OCC2c3ccccc3-c3ccccc32)C/C=C\C[C@H](CC(=O)N(CCO)Cc2ccccc2)C(=O)N1 the AC50 was 6080 nM.
For Cn1c2c(c(=O)n(C)c1=O)C(C(F)(F)F)(C(F)(F)F)N=C(c1ccc(Cl)cc1)N2, the AC50 was 1470 nM.
CCCCC(=O)NC(c1cccc([N+](=O)[O-])c1)c1ccc2cccnc2c1O (centres undefined) was tested, and the AC50 was 1000 nM.
CC(C)OC(=O)c1ccc(NCc2cc(O)ccc2O)cc1 was tested, and the AC50 was 1900 nM.
In the case of Cc1c(C(=O)Nc2ccc(F)c(F)c2)oc2ccc(S(=O)(=O)N3CCCCC3)cc12, the AC50 is reported as 7050 nM.
Cc1cc(N2CCCC2=O)cc(C)c1S(=O)(=O)NCCOc1ccc(C(C)(C)C)cc1 showed an AC50 of 1150 nM.
C=CCNc1nc(-c2ccccn2)nnc1-c1ccccc1 was tested, and the AC50 was 3170 nM.
